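A five-concentration, 48-hour dose response in 96-well plates underlies each endpoint, interpolated linearly between surrounding concentrations. At the GI50, growth is halved. TGI: total growth inhibition.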
Assays:
Experiment in all cases: NCI-60 cell line screen, 48 h
SR leukemia = system: SR leukemia
EKVX NSCLC = system: EKVX NSCLC
SF-268 CNS = system: SF-268 CNS
MDA-MB-435 = system: MDA-MB-435
OVCAR-4 ovarian = system: OVCAR-4 ovarian
SK-OV-3 ovarian = system: SK-OV-3 ovarian
NCI-H460 lung = system: NCI-H460 lung
M14 melanoma = system: M14 melanoma
COLO 205 colon = system: COLO 205 colon
HOP-92 NSCLC = system: HOP-92 NSCLC
HCT-15 colon = system: HCT-15 colon
KM12 colon = system: KM12 colon
K-562 leukemia = system: K-562 leukemia
NCI-H226 lung = system: NCI-H226 lung
HCC-2998 colon = system: HCC-2998 colon
A498 renal = system: A498 renal
SF-295 CNS = system: SF-295 CNS
SK-MEL-28 melanoma = system: SK-MEL-28 melanoma
U251 CNS = system: U251 CNS
A549 NSCLC = system: A549 NSCLC
DU-145 prostate = system: DU-145 prostate
HT29 colon = system: HT29 colon
T-47D breast = system: T-47D breast
OVCAR-5 ovarian = system: OVCAR-5 ovarian
CAKI-1 renal = system: CAKI-1 renal
SNB-75 CNS = system: SNB-75 CNS
ACHN renal = system: ACHN renal
HOP-62 NSCLC = system: HOP-62 NSCLC
CCRF-CEM leukemia = system: CCRF-CEM leukemia
MALME-3M melanoma = system: MALME-3M melanoma
SK-MEL-2 melanoma = system: SK-MEL-2 melanoma
MCF7 breast = system: MCF7 breast
UACC-257 melanoma = system: UACC-257 melanoma
OVCAR-3 ovarian = system: OVCAR-3 ovarian
SW-620 colon = system: SW-620 colon
786-0 renal = system: 786-0 renal
TK-10 renal = system: TK-10 renal
MDA-MB-231 breast = system: MDA-MB-231 breast
IGROV1 ovarian = system: IGROV1 ovarian
HL-60(TB) leukemia = system: HL-60(TB) leukemia
PC-3 prostate = system: PC-3 prostate
UO-31 renal = system: UO-31 renal
UACC-62 melanoma = system: UACC-62 melanoma
HCT-116 colon = system: HCT-116 colon
HS 578T breast = system: HS 578T breast
LOX IMVI melanoma = system: LOX IMVI melanoma
BT-549 breast = system: BT-549 breast
OVCAR-8 ovarian = system: OVCAR-8 ovarian
NCI-H522 lung = system: NCI-H522 lung
SF-539 CNS = system: SF-539 CNS
SNB-19 CNS = system: SNB-19 CNS
RXF 393 renal = system: RXF 393 renal
NCI/ADR-RES ovarian = system: NCI/ADR-RES ovarian
SK-MEL-5 melanoma = system: SK-MEL-5 melanoma
RPMI-8226 leukemia = system: RPMI-8226 leukemia

Cc1ccc2c(n1)C(=O)C(Cl)=C(Nc1ccccc1C(=O)OC(C)(C)C)C2=O
GI50 (SR leukemia): 442 nM
TGI (SR leukemia): 7.86 µM
GI50 (EKVX NSCLC): 1590 nM
TGI (EKVX NSCLC): 3.01 µM
GI50 (SF-268 CNS): 3.06 µM
TGI (SF-268 CNS): 14.7 µM
GI50 (MDA-MB-435): 1710 nM
TGI (MDA-MB-435): 3.19 µM
GI50 (OVCAR-4 ovarian): 1400 nM
TGI (OVCAR-4 ovarian): 2780 nM
GI50 (SK-OV-3 ovarian): > 100 µM
TGI (SK-OV-3 ovarian): > 100 µM
GI50 (NCI-H460 lung): 3.08 µM
TGI (NCI-H460 lung): 11.3 µM
GI50 (M14 melanoma): 1730 nM
TGI (M14 melanoma): 3.38 µM
GI50 (COLO 205 colon): 1770 nM
TGI (COLO 205 colon): 3.48 µM
GI50 (HOP-92 NSCLC): 1530 nM
TGI (HOP-92 NSCLC): 2890 nM
GI50 (HCT-15 colon): 1370 nM
TGI (HCT-15 colon): 3.32 µM
GI50 (KM12 colon): 6.07 µM
TGI (KM12 colon): 50.4 µM
GI50 (K-562 leukemia): 549 nM
TGI (K-562 leukemia): > 100 µM
GI50 (NCI-H226 lung): 6.77 µM
TGI (NCI-H226 lung): > 100 µM
GI50 (HCC-2998 colon): 1750 nM
TGI (HCC-2998 colon): 3.27 µM
GI50 (A498 renal): 12.4 µM
TGI (A498 renal): 47.8 µM
GI50 (SF-295 CNS): 4.25 µM
TGI (SF-295 CNS): 22.5 µM
GI50 (SK-MEL-28 melanoma): 1660 nM
TGI (SK-MEL-28 melanoma): 3.12 µM
GI50 (U251 CNS): 2420 nM
TGI (U251 CNS): 6.81 µM
GI50 (A549 NSCLC): 44.5 µM
TGI (A549 NSCLC): > 100 µM
GI50 (DU-145 prostate): 1770 nM
TGI (DU-145 prostate): 3.32 µM
GI50 (HT29 colon): 2940 nM
TGI (HT29 colon): 8.52 µM
GI50 (T-47D breast): 1840 nM
TGI (T-47D breast): 4.91 µM
GI50 (OVCAR-5 ovarian): 2050 nM
TGI (OVCAR-5 ovarian): 4.1 µM
GI50 (CAKI-1 renal): 1550 nM
TGI (CAKI-1 renal): 2900 nM
GI50 (SNB-75 CNS): 14.7 µM
TGI (SNB-75 CNS): > 100 µM
GI50 (ACHN renal): 1750 nM
TGI (ACHN renal): 3.14 µM
GI50 (HOP-62 NSCLC): 3.59 µM
TGI (HOP-62 NSCLC): 18.3 µM
GI50 (CCRF-CEM leukemia): 425 nM
TGI (CCRF-CEM leukemia): > 100 µM
GI50 (MALME-3M melanoma): 1660 nM
TGI (MALME-3M melanoma): 3.27 µM
GI50 (SK-MEL-2 melanoma): 2270 nM
TGI (SK-MEL-2 melanoma): 6.78 µM
GI50 (MCF7 breast): 813 nM
TGI (MCF7 breast): 3.58 µM
GI50 (UACC-257 melanoma): 1690 nM
TGI (UACC-257 melanoma): 3.3 µM
GI50 (OVCAR-3 ovarian): 1310 nM
TGI (OVCAR-3 ovarian): 2960 nM
GI50 (SW-620 colon): 1840 nM
TGI (SW-620 colon): 6.26 µM
GI50 (786-0 renal): 1690 nM
TGI (786-0 renal): 3.22 µM
GI50 (TK-10 renal): 1810 nM
TGI (TK-10 renal): 3.28 µM
GI50 (MDA-MB-231 breast): 1580 nM
TGI (MDA-MB-231 breast): 3.26 µM
GI50 (IGROV1 ovarian): 1730 nM
TGI (IGROV1 ovarian): 3.43 µM
GI50 (HL-60(TB) leukemia): 394 nM
TGI (HL-60(TB) leukemia): 1900 nM
GI50 (PC-3 prostate): 1780 nM
TGI (PC-3 prostate): 4.19 µM
GI50 (UO-31 renal): 1420 nM
TGI (UO-31 renal): 2740 nM
GI50 (UACC-62 melanoma): 1820 nM
TGI (UACC-62 melanoma): 3.98 µM
GI50 (HCT-116 colon): 1610 nM
TGI (HCT-116 colon): 3.15 µM
GI50 (HS 578T breast): 2390 nM
TGI (HS 578T breast): 7.54 µM
GI50 (LOX IMVI melanoma): 1020 nM
TGI (LOX IMVI melanoma): 2310 nM
GI50 (BT-549 breast): 2900 nM
TGI (BT-549 breast): 9.04 µM
GI50 (OVCAR-8 ovarian): 2830 nM
TGI (OVCAR-8 ovarian): 9.32 µM
GI50 (NCI-H522 lung): 1830 nM
TGI (NCI-H522 lung): 3.86 µM
GI50 (SF-539 CNS): 1700 nM
TGI (SF-539 CNS): 3.18 µM
GI50 (SNB-19 CNS): 3.3 µM
TGI (SNB-19 CNS): 15.4 µM
GI50 (RXF 393 renal): 1620 nM
TGI (RXF 393 renal): 2990 nM
GI50 (NCI/ADR-RES ovarian): 2170 nM
TGI (NCI/ADR-RES ovarian): 5.35 µM
GI50 (SK-MEL-5 melanoma): 1590 nM
TGI (SK-MEL-5 melanoma): 2980 nM
GI50 (RPMI-8226 leukemia): 1780 nM
TGI (RPMI-8226 leukemia): 5.9 µM

Reference: PubChem BioAssay (NCI)
